The source of these data is patent US12336991B2, “Factor XIIA inhibitors” (UNIVERSITY OF LEEDS, priority 2018, dated 2025).

What all share (type): biochemical
In one assay the target is FXa (Homo sapiens, UniProt P00742). Put plainly: Determination of selectivity: FXa inhibition, chromogenic substrate S2765 assay. The settings on record: fold selectivity for FXIIa over FXa. The gist of the method:
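Human FXa (5 nM) preincubated with compound (top 500 μM, 5% DMSO) 10 min at 37 °C in 50 mM Tris, 137 mM NaCl pH 7.4, then S2765 ([…]) added; A405 kinetics over 3 h at 37 °C. IC50 from initial rates, converted to Ki via Cheng-Prusoff.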

In the next assay the target is T1, FXIIa (Homo sapiens, UniProt P00748).
T1 sequence (P00748 373-615 limits assumed): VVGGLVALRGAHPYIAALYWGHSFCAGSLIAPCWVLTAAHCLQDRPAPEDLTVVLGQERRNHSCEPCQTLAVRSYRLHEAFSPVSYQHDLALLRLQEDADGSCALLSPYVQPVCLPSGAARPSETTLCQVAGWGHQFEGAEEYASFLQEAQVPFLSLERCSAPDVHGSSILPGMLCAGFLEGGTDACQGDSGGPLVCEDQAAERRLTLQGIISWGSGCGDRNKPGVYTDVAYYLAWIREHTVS
T1 sequence (P00748 20-372 partner limits assumed): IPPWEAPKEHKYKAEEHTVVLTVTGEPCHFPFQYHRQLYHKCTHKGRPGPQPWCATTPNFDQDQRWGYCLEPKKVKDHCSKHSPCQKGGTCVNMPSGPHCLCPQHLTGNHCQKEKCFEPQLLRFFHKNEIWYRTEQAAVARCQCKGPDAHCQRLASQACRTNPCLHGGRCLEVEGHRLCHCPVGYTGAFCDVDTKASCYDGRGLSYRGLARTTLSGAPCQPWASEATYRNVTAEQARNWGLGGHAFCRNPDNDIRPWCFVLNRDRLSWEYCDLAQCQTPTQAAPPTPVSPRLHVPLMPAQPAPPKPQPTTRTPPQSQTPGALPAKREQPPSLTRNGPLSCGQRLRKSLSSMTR
Put plainly: Determination of Factor XIIa inhibition, chromogenic substrate S-2302 assay. The settings on record: human FXIIa alpha. The gist of the method:
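FXIIa (10 nM) preincubated with compound 10 min at 37° C. in 50 mM Tris, 137 mM NaCl pH 7.4, 5% DMSO, top concentration 500 μM, then S-2302 added ([…]). Absorbance at 405 nm read kinetically for 3 h; IC50 from initial rates, converted to Ki by Cheng-Prusoff.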

In the next assay the target is T2, thrombin (Homo sapiens, UniProt P00734).
T2 construct: FXa (5 nM) and thrombin (5 nM)
In words: Determination of selectivity: thrombin inhibition, chromogenic substrate GPR assay. The settings on record: fold selectivity for FXIIa over thrombin. The gist of the method:
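Thrombin (5 nM) preincubated with compound 10 min at 37 °C in 50 mM Tris, 137 mM NaCl, pH 7.4, 5% DMSO, then GPR substrate ([…]) added. Absorbance at 405 nm read kinetically for 3 h; IC50 from initial rates, converted to Ki via Ki=IC50/(1+[S]/Km).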

Chain of FXa (P00742 235-488 limits assumed): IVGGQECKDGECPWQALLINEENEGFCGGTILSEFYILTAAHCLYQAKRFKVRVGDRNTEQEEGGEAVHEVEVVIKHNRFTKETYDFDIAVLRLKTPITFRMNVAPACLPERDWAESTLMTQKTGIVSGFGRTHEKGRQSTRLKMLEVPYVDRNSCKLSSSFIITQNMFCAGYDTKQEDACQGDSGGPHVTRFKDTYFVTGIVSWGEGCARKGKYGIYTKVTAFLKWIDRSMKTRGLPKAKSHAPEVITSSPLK
Chain of FXa (P00742 41-179 partner limits assumed): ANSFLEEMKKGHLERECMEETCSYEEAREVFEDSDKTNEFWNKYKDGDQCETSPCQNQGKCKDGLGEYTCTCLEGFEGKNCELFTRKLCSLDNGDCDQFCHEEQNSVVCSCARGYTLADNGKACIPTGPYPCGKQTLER

What is called Ki is the dissociation constant of the complex between target and ligand, obtained from inhibition or displacement. The low end stands for a stronger hold on the target, the high end for a looser hold on the target. As for `COc1ccc(C[C@@H]2C[C@@H](C(=O)NCc3cc4cnccc4[nH]3)N(C(=O)C3C[C@@H](C(=O)N4CCCC4)CCN3)C2)cc1` (stereo partly drawn) [Example M00966], at FXa, the “FXa (human)/FXIIa alpha (human)” value is recorded as “∘∘∘”. This molecule displayed a Ki at FXIIa of less than 200 nM. The “Thrombin (human)/FXIIa alpha (human)” value at thrombin was “+++ (fold selectivity values greater than 100)”.

Take `Cn1nnc2cc(CNC(=O)[C@@H]3C[C@@H](Cc4ccc(C(F)(F)F)cc4)CN3C(=O)[C@H](N)CCC(=O)N3CCCC3)ccc21` [Example M05336]: the “FXa (human)/FXIIa alpha (human)” value on FXa is listed as “∘∘∘”. The inhibition constant Ki on FXIIa was less than 200 nM. Besides, the “Thrombin (human)/FXIIa alpha (human)” value on thrombin is on record as “+++ (fold selectivity values greater than 100)”.

As for `Cn1nnc2cc(CNC(=O)[C@@H]3C[C@@H](Cc4cccc5c4CCO5)CN3C(=O)[C@H]3C[C@@H](c4ccccc4)CN3)ccc21` [Example M05371], the “FXa (human)/FXIIa alpha (human)” value on FXa is “∘∘”. For the same molecule, on FXIIa, the Ki was greater than 2000 nM. In addition, the “Thrombin (human)/FXIIa alpha (human)” value on thrombin is given as “++ (fold selectivity value of 10 to 100)”.

As to `COc1ccc(C[C@@H]2C[C@@H](C(=O)NCc3ccc4c(c3)nnn4C)N(C(=O)[C@H]3CC(c4ccccc4C(F)(F)F)CN3)C2)cc1` (stereo partly drawn) [Example M05397], on FXa, the “FXa (human)/FXIIa alpha (human)” value is “∘∘∘”. The molecule also registered an inhibition constant Ki at FXIIa of 200 to 2000 nM. Also, the “Thrombin (human)/FXIIa alpha (human)” value on thrombin is “+++ (fold selectivity values greater than 100)”.

Consider `COc1ccc(C[C@@H]2C[C@@H](C(=O)NCc3ccc4c(C)nn(C)c4c3)N(C(=O)[C@H](N)CCC(=O)N3CCCC3)C2)cc1` [Example M05448], for which the “FXa (human)/FXIIa alpha (human)” value at FXa is “∘∘∘”. On FXIIa, this molecule showed a Ki of 200 to 2000 nM. In addition, the “Thrombin (human)/FXIIa alpha (human)” value at thrombin is on record as “+++ (fold selectivity values greater than 100)”.

In the case of `Cn1nc(Cl)c2cc(CNC(=O)[C@@H]3C[C@@H](Cc4cccnc4)CN3C(=O)[C@H](N)CCC(=O)N3CCCC3)ccc21` [Example M05224], at FXa, the “FXa (human)/FXIIa alpha (human)” value was “∘∘∘”. The Ki at FXIIa is less than 200 nM. Besides, at thrombin, the “Thrombin (human)/FXIIa alpha (human)” value is “+++ (fold selectivity values greater than 100)”.

Regarding `Cn1nnc2cc(CNC(=O)[C@@H]3C[C@@H](Cc4cccc5c4CCO5)CN3C(=O)[C@H](N)CCC(=O)N3CCCC3)ccc21` [Example M05380], the “FXa (human)/FXIIa alpha (human)” value at FXa is recorded as “∘∘∘”. Moreover, the Ki on FXIIa is 200 to 2000 nM. Further, the “Thrombin (human)/FXIIa alpha (human)” value on thrombin was “+++ (fold selectivity values greater than 100)”.

On to `CN(C)[C@H](CCC(=O)N1CCCC1)C(=O)N1C[C@H](Cc2ccncc2)C[C@H]1C(=O)NCc1ccc2c(c1)nnn2C` [Example M05220], for which the “FXa (human)/FXIIa alpha (human)” value at FXa was “∘∘∘”. In addition, the Ki on FXIIa was in the range of 200 to 2000 nM. Also, the “Thrombin (human)/FXIIa alpha (human)” value at thrombin is listed as “+++ (fold selectivity values greater than 100)”.

In the case of `COc1ccc(C[C@@H]2C[C@@H](C(=O)NCc3ccc4c(c3)nnn4C)N(C(=O)C3NCCc4cc(Cl)ccc43)C2)cc1` (stereo partly drawn) [Example M05430], the “FXa (human)/FXIIa alpha (human)” value on FXa is recorded as “∘∘∘”. The molecule further had a Ki on FXIIa of 200 to 2000 nM. Besides, the “Thrombin (human)/FXIIa alpha (human)” value at thrombin is listed as “+++ (fold selectivity values greater than 100)”.

For the molecule `Cn1nnc2cc(CNC(=O)[C@@H]3C[C@@H](Cc4ccncc4)CN3C(=O)[C@@H](CCC(=O)N3CCCC3)NCC(F)(F)F)ccc21` [Example M05271], the “FXa (human)/FXIIa alpha (human)” value on FXa is recorded as “∘∘”. Further, the Ki on FXIIa was greater than 2000 nM. At thrombin, the “Thrombin (human)/FXIIa alpha (human)” value was “++ (fold selectivity value of 10 to 100)”.

For the molecule `Cc1ccccc1CC[C@@H](N)C(=O)N1CCC[C@H]1C(=O)NCc1ccc(CN)cc1` [Example M00760], the “FXa (human)/FXIIa alpha (human)” value at FXa is “∘∘”. This molecule also registered a Ki at FXIIa greater than 2000 nM. In addition, the “Thrombin (human)/FXIIa alpha (human)” value on thrombin is listed as “+ (fold selectivity values less than 10)”.

Regarding `COc1ccc(C[C@@H]2C[C@@H](C(=O)NCc3ccc4c(c3)nnn4C)N(C(=O)[C@H](N)CC(O)c3ccccc3)C2)cc1` (stereo partly drawn) [Example M05379], the “FXa (human)/FXIIa alpha (human)” value at FXa is recorded as “∘∘∘”. At FXIIa, this molecule returned an inhibition constant Ki of 200 to 2000 nM. Further, at thrombin, the “Thrombin (human)/FXIIa alpha (human)” value is given as “+++ (fold selectivity values greater than 100)”.

As for `COc1ccc(C[C@@H]2C[C@@H](C(=O)NCc3ccc4c(c3)nnn4C)N(C(=O)[C@H](N)CCc3ccccn3)C2)cc1` [Example M05453], the “FXa (human)/FXIIa alpha (human)” value on FXa is reported as “∘∘∘”. The molecule further returned a Ki on FXIIa of less than 200 nM. Further, the “Thrombin (human)/FXIIa alpha (human)” value at thrombin is listed as “+++ (fold selectivity values greater than 100)”.

Regarding `COc1ccc(C[C@@H]2C[C@@H](C(=O)NCc3ccc4c(c3)nnn4C)N(C(=O)[C@H](N)CC3CCCc4ccccc43)C2)cc1` (stereo partly drawn) [Example M05413], the “FXa (human)/FXIIa alpha (human)” value at FXa was “∘∘∘”. The molecule also displayed a Ki on FXIIa of 200 to 2000 nM. Moreover, the “Thrombin (human)/FXIIa alpha (human)” value on thrombin was “++ (fold selectivity value of 10 to 100)”.

For `Cn1nnc2cc(CNC(=O)[C@@H]3CC(Cc4ccc(F)c(Cl)c4F)CN3C(=O)[C@H](N)CCC(=O)N3CCCC3)ccc21` (stereo partly drawn) [Example M05295], at FXa, the “FXa (human)/FXIIa alpha (human)” value was “∘∘∘”. On FXIIa, this molecule yielded an inhibition constant (Ki) of 200 to 2000 nM. For the same molecule, at thrombin, the “Thrombin (human)/FXIIa alpha (human)” value is on record as “+++ (fold selectivity values greater than 100)”.

For `Cn1nnc2cc(CNC(=O)[C@@H]3C[C@H](c4ccccc4)CN3C(=O)[C@H](N)CCc3ccccc3)ccc21` [Example M05163], at FXa, the “FXa (human)/FXIIa alpha (human)” value is reported as “∘∘”. On FXIIa, the Ki was greater than 2000 nM. Besides, the “Thrombin (human)/FXIIa alpha (human)” value on thrombin is listed as “++ (fold selectivity value of 10 to 100)”.

On to `Cn1nnc2cc(CNC(=O)[C@@H]3CC(NCC4CCCCC4)CN3C(=O)[C@H](N)CCc3ccccc3)ccc21` (stereo partly drawn) [Example M05204], for which the “FXa (human)/FXIIa alpha (human)” value at FXa was “∘∘”. Also, on FXIIa, the Ki is greater than 2000 nM. Also, the “Thrombin (human)/FXIIa alpha (human)” value on thrombin was “++ (fold selectivity value of 10 to 100)”.

Consider `COc1ccc(C[C@@H]2C[C@@H](C(=O)NCc3ccc4c(c3)nnn4C)N(C(=O)C3NCCc4cc(Cl)ccc43)C2)cc1` (stereo partly drawn) [Example M05431], for which the “FXa (human)/FXIIa alpha (human)” value at FXa is given as “∘∘”. The molecule also showed a Ki on FXIIa greater than 2000 nM. The “Thrombin (human)/FXIIa alpha (human)” value on thrombin is reported as “++ (fold selectivity value of 10 to 100)”.

Turning to `Cn1nccc1C[C@H]1C[C@@H](C(=O)NCc2ccc3c(c2)nnn3C)N(C(=O)[C@H](N)CCC(=O)N2CCCC2)C1` [Example M05294], the “FXa (human)/FXIIa alpha (human)” value at FXa is listed as “∘∘∘”. Further, at FXIIa, the Ki lay within 200 to 2000 nM. The “Thrombin (human)/FXIIa alpha (human)” value at thrombin is on record as “++ (fold selectivity value of 10 to 100)”.

Consider `Cn1nnc2cc(CNC(=O)[C@@H]3C[C@@H](Cc4ccccc4Cl)CN3C(=O)[C@H]3C[C@@H](c4ccccc4)CN3)ccc21` [Example M05333], for which the “FXa (human)/FXIIa alpha (human)” value at FXa was “∘”. The Ki on FXIIa was greater than 2000 nM. Moreover, on thrombin, the “Thrombin (human)/FXIIa alpha (human)” value is “++ (fold selectivity value of 10 to 100)”.

`COc1ccc(C[C@@H]2C[C@@H](C(=O)NCc3cc4cccnc4[nH]3)N(C(=O)[C@H](N)CCC(=O)N3CCCC3)C2)cc1` [Example M05401]: the “FXa (human)/FXIIa alpha (human)” value at FXa is “∘∘”. For the same molecule, the Ki on FXIIa was greater than 2000 nM. Moreover, the “Thrombin (human)/FXIIa alpha (human)” value on thrombin is on record as “++ (fold selectivity value of 10 to 100)”.

`Cn1nnc2cc(CNC(=O)[C@@H]3C[C@H](c4ccccc4Oc4ccccc4)CN3C(=O)[C@H](N)CCc3ccccc3)ccc21` [Example M05174]: the “FXa (human)/FXIIa alpha (human)” value on FXa is recorded as “∘∘”. This molecule yielded a Ki on FXIIa greater than 2000 nM. Besides, the “Thrombin (human)/FXIIa alpha (human)” value at thrombin is listed as “++ (fold selectivity value of 10 to 100)”.

On to `Cn1nnc2cc(CNC(=O)[C@@H]3C[C@@H](Cc4cccnc4)CN3C(=O)[C@H]3C[C@@H](c4ccccc4)CN3)ccc21` [Example M05338], for which the “FXa (human)/FXIIa alpha (human)” value on FXa is recorded as “∘∘”. Further, at FXIIa, the Ki is greater than 2000 nM. For the same molecule, the “Thrombin (human)/FXIIa alpha (human)” value at thrombin was “++ (fold selectivity value of 10 to 100)”.
